For the assay, the system named is Carpocapsa pomonella. Nature of the assay: Example 29: apple trees against Carpocapsa pomonella, fruit damage. The class given is in vivo. To be noted: application rate printed as g a.s./ha: Chlorpyrifos-methyl (25 WP) 0.1, (I-4) (240 SC + 0.1% Steffes Mero) 0.012. The protocol: Approx. 15-year-old apple trees cv. “Golden Delicious” are treated, in four replications, against Carpocapsa pomonella. The application is carried out with an atomizer. Here, the active substance Example (I-4) (240 SC) in a tank mix together with 0.1% a.s. of the adjuvant Steffes Mero (rapeseed oil methyl ester) (733 1R) and the commercial standard Chlorpyrifos-methyl (25 WP) are tested at the specified application rates. The water application rate is 1052 l/ha. Two applications are carried out at an interval of 13 days.
The test is evaluated 32 days after treatment 2 by scoring the fruit damage with the aid of the Abbott formula.

As for `COP(=S)(OC)Oc1nc(Cl)c(Cl)cc1Cl` [Chlorpyrifos-methyl], the “Efficacy (% Abbott) 32 d after treatment 2” value is 66.7 % Abbott.

Values taken from patent US20090298903A1, “USE OF TETRAMIC ACID DERIVATIVES FOR INSECT CONTROL” (priority 2006, published 2009).
